Assay results: ChEMBL document CHEMBL5346968, “Exploring Structural Determinants of Bias among D4 Subtype-Selective Dopamine Receptor Agonists” (J Med Chem, 2023)

Target: D(3) dopamine receptor (Homo sapiens, UniProt P35462)
Assay: Displacement of [3H]-N-methylspiperone from human dopmaine D3 receptor expressed in HEK293T cells assessed as inhibition constant by competition binding assay
Format: cell-based

D(3) dopamine receptor, sequence (P35462 whole entry): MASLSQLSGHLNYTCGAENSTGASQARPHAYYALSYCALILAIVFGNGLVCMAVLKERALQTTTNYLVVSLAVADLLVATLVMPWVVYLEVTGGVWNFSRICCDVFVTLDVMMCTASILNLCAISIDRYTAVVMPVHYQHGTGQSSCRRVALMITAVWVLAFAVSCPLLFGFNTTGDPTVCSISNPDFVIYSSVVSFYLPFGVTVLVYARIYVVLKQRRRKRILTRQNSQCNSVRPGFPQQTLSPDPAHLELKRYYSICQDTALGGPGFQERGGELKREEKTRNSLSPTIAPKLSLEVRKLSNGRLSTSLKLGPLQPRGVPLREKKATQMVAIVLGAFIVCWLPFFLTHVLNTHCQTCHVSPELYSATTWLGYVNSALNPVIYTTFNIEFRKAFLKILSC

Compound | Ki
COc1ccccc1N1CCN(CCCNC(=O)Nc2ccc(F)cc2-c2ccccc2)CC1 | 29 nM
COc1ccccc1N1CCN(CCCNC(=O)NCc2ccccc2-c2ccc(C(C)C)cc2)CC1 | 190 nM
C#CCOc1ccc(NC(=O)NCCCN2CCN(c3ccccc3OC)CC2)c(-c2ccccc2)c1 | 39 nM

Further lines, results first:

Ki | Compound
99 nM | COc1ccccc1N1CCN(CCCNC(=O)NCc2ccccc2-c2ccc(F)cc2)CC1
210 nM | COc1ccccc1N1CCN(CCCNC(=O)NCc2ccccc2-c2cccc(F)c2)CC1
370 nM | COc1ccccc1N1CCN(CCCNC(=O)NCc2ccccc2-c2ccc(-c3ccccc3)cc2)CC1
66 nM | COc1ccc(NC(=O)NCCCN2CCN(c3ccccc3OC)CC2)cc1-c1ccc(F)cc1

Target: T1, D(2) dopamine receptor (Homo sapiens, UniProt P14416)
Assay: Displacement of [3H]-N-methylspiperone from human dopmaine D2L receptor expressed in CHO cell membrane assessed as inhibition constant by competition binding assay
Format: cell membranes

T1 sequence (P14416 whole entry): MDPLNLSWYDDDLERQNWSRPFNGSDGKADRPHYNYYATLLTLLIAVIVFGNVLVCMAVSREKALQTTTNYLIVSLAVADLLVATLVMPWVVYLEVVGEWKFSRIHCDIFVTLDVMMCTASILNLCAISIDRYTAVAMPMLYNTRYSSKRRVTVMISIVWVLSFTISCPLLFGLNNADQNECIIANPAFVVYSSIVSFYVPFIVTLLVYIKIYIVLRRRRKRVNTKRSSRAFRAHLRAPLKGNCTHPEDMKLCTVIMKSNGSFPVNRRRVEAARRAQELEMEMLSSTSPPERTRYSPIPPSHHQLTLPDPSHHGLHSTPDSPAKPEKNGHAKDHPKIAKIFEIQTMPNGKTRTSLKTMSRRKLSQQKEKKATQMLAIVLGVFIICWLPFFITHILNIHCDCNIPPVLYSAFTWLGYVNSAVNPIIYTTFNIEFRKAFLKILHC

Compound | Ki
COc1ccccc1N1CCN(CCCNC(=O)Nc2ccc(F)cc2-c2ccccc2)CC1 | 140 nM
COc1ccccc1N1CCN(CCCNC(=O)NCc2ccccc2-c2ccc(C(C)C)cc2)CC1 | 400 nM
C#CCOc1ccc(NC(=O)NCCCN2CCN(c3ccccc3OC)CC2)c(-c2ccccc2)c1 | 86 nM

The remaining lines, values ahead:

Ki | Compound
210 nM | COc1ccccc1N1CCN(CCCNC(=O)NCc2ccccc2-c2ccc(F)cc2)CC1
86 nM | COc1ccccc1N1CCN(CCCNC(=O)NCc2ccccc2-c2cccc(F)c2)CC1
460 nM | COc1ccccc1N1CCN(CCCNC(=O)NCc2ccccc2-c2ccc(-c3ccccc3)cc2)CC1
89 nM | COc1ccc(NC(=O)NCCCN2CCN(c3ccccc3OC)CC2)cc1-c1ccc(F)cc1

Target: T1, D(2) dopamine receptor
Assay: Displacement of [3H]-N-methylspiperone from human dopmaine D2S receptor expressed in CHO cell membrane assessed as inhibition constant by competition binding assay
Format: cell membranes

Compound | Ki
COc1ccccc1N1CCN(CCCNC(=O)Nc2ccc(F)cc2-c2ccccc2)CC1 | 31 nM
COc1ccccc1N1CCN(CCCNC(=O)NCc2ccccc2-c2ccc(C(C)C)cc2)CC1 | 170 nM
C#CCOc1ccc(NC(=O)NCCCN2CCN(c3ccccc3OC)CC2)c(-c2ccccc2)c1 | 46 nM

More lines, now with the values ahead:

Ki | Compound
75 nM | COc1ccccc1N1CCN(CCCNC(=O)NCc2ccccc2-c2ccc(F)cc2)CC1
67 nM | COc1ccccc1N1CCN(CCCNC(=O)NCc2ccccc2-c2cccc(F)c2)CC1
290 nM | COc1ccccc1N1CCN(CCCNC(=O)NCc2ccccc2-c2ccc(-c3ccccc3)cc2)CC1
53 nM | COc1ccc(NC(=O)NCCCN2CCN(c3ccccc3OC)CC2)cc1-c1ccc(F)cc1

Target: T2, D(4) dopamine receptor (Homo sapiens, UniProt P21917)
T2 sequence (P21917 whole entry): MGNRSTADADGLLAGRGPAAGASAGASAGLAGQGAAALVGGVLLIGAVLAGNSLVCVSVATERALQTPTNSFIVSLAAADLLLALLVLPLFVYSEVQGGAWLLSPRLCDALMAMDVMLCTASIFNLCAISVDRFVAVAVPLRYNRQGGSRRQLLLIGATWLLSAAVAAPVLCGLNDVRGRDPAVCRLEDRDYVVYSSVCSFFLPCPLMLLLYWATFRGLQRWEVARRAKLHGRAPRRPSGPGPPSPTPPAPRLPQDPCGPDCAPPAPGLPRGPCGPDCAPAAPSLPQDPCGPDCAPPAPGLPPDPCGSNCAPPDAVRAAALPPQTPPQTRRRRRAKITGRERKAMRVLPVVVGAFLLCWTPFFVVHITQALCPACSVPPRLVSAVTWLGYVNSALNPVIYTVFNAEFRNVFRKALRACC
Assay: Displacement of [3H]-N-methylspiperone from human dopmaine D4.4 receptor expressed in HEK293T cells assessed as inhibition constant by competition binding assay
Format: cell-based

Compound | Ki
COc1ccccc1N1CCN(CCCNC(=O)NCc2ccccc2-c2ccc(C(C)C)cc2)CC1 | 36 nM
C#CCOc1ccc(NC(=O)NCCCN2CCN(c3ccccc3OC)CC2)c(-c2ccccc2)c1 | 3.5 nM

Second part, the molecule after the results:

Ki | Compound
5.3 nM | COc1ccccc1N1CCN(CCCNC(=O)NCc2ccccc2-c2ccc(F)cc2)CC1
3.1 nM | COc1ccccc1N1CCN(CCCNC(=O)NCc2ccccc2-c2cccc(F)c2)CC1
15 nM | COc1ccccc1N1CCN(CCCNC(=O)NCc2ccccc2-c2ccc(-c3ccccc3)cc2)CC1
5.8 nM | COc1ccc(NC(=O)NCCCN2CCN(c3ccccc3OC)CC2)cc1-c1ccc(F)cc1
